Reference: patent publication US20230158151A1 (NURIX THERAPEUTICS, INC., priority 2021, published 2023)
Like-named read-outs stand apart in the source and are kept apart here.

What was measured:
[1] = Mouse PK Analysis (plasma LC/MS/MS, noncompartmental PK parameters); format: in vivo; design: AUC(0-t): concentration or dose not given beside the values; conditions: mice; for AUC(0-t) / Cmax / Tmax: mouse, oral administration, plasma
Description: Compounds 30 and 29 were administered to mice orally. After 6 hours or 24 hours, splenocytes cells were harvested. ITK was evaluated by Western blotting. Plasma concentrations were determined by LC/MS/MS. Plasma samples were protein precipitated by addition of 100 μl of acetonitrile containing 50 ng/ml of internal standard. The resulting mixture was vortexed and centrifuged at 4000 RPM for 5 minutes. An aliquot of the resultant supernatant (75 μl) was added to 75 μl of 0.1% formic acid in water to constitute the final sample for injection. Samples were injected on a Shimadzu Exion LC Binary Gradient AD Pump HLPC system connected to a Sciex QTRAP 6500+ mass spectrometer. Five μl of sample was injected onto a Waters Acquity UPLC BEH C18 column 130A (2.1×30 mm, […]) at 40° C. utilizing a flow rate of 700 μl/minute. Mobile Phase A was 0.1% formic acid in water and mobile phase B was 0.1% formic acid in acetonitrile. A linear gradient of 15-95% B over 1.0 minute was used. The mass spectrometer was operated in positive ion electrospray mode with multiple reaction monitoring for maximum sensitivity. Sciex Analyst software (version 1.6.3) was used for LC/MS/MS instrument control and acquisition. Compound concentration was determined against a standard curve of internal standard versus compound peak area ratio. Noncompartmental PK parameters were determined using Phoenix 32 software (version 8.2.0.4383) from Certara. Plasma concentrations from the LC/MS/MS analyses, dose, route of administration, and desired units were utilized for PK parameter calculations. […] FIG. 3C provides the concentration over time of compound 30 following in vivo oral administration in the 6 hour and 24 hour assays.
Cmax, Tmax and AUClast were all calculated using a WinNonLin Phoenix 64 v 8.2.0.4383. Using non-compartmental analysis, Tmax, Cmax and AUClast were determined as follows:
Tmax—Time of maximum observed concentration. Cmax—Maximum observed concentration, occurring at time Tmax, as defined above. AUClast—Area under the curve from the time of dosing to the time of the last measurable (positive) concentration (Tlast).

ITK = target: T1, ITK (Homo sapiens, UniProt Q08881); assay: ITK Degradation HiBiT Assay; format: cell-based
T1 construct: Compounds provided herein were assayed in vitro with ITK HiBit cell lines; endogenous in cells; host or cells: Molt4 (ATCC CRL-1552 [sic]), monoclonal clone 1C10
T1 sequence (Q08881 1-620): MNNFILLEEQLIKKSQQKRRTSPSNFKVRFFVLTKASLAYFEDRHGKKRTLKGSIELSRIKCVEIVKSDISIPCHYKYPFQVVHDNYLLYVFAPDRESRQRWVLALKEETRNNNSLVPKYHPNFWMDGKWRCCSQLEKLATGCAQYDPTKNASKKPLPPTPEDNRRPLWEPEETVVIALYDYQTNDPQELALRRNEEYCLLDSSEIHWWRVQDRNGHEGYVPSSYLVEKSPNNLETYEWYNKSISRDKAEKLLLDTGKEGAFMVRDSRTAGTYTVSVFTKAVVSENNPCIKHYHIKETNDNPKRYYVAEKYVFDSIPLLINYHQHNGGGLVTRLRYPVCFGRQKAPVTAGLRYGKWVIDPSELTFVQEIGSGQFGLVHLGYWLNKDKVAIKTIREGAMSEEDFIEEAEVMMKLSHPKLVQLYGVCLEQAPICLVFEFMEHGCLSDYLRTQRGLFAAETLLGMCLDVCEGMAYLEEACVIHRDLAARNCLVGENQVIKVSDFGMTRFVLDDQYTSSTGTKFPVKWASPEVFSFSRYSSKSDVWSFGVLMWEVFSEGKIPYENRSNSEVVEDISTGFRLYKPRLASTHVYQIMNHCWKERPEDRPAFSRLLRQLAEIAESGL
Description: Compounds provided herein were assayed in vitro with ITK HiBit cell lines. Compound dilution series (11-point, 5 fold dilutions in DMSO, columns 2-12 with replicate in rows A/B, C/D, E/F, G, H at 2000× the final required concentrations were prepared in 96 well plate (Falcon, cat. no. 353077). Column 1, rows A-H were control DMSO. The 2000× solutions ranged from 2 mM to 1.024 nM (final assay concentration range 1 μM to […]). The 2000× solutions were added to cells in […], for a final DMSO concentration of 0.5% and final assay compound concentration of 1×. For the cells, C-terminal HiBiT-tagged Molt4 cells (ATCC CRL-1552, monoclonal cell line clone 1C10) were plated at 1×10^6 cells/mL, 100 μL/well ([…]) in complete RPMI (10% FBS, 1% L-glutamine). The cells were incubated with compound 32 and compound 30 for 4 hrs at 32° C./6% CO2.
Following incubation, 100 μL of complete Nano-Glo HiBiT Lytic Detection Reagent (Nano-Glo HiBiT Lytic Buffer with 1:50 Nano-Glo HiBiT Lytic Substrate and 1:100 LgBiT Protein; Promega cat. no. N3O40) was added. Cells were further incubated for 10 min at room temperature (RT). Luminescence units (LU) were read on an EnVision plate reader (Perkin Elmer, 0.1 sec per well). Percent ITK remaining per sample was calculated as follows: […]
Using Graphpad Prism, % ITK remaining values were plotted as a function of compound concentration. To determine DC50 and Dmax values, resulting curves were fit to the Prism curve-fitting equation “log(inhibitor) vs response−Variable slope (four parameters)” (reported best fit value IC50 used as DC50). ITK was measured with antibody-based MSD (Meso-Scale Discovery) assays shown below.

[2] = MOLT-4, C-terminal HiBiT-tagged Molt4 cells, 4 hrs incubation, read-out: HiBiT DMax (%)

| AUC(0-t) [1] | Cmax [1] | Tmax [1] | Dmax (ITK; ITK degradation in HiBiT cell line, FIG. 1, read-out: Dmax values (FIG. 1)) | Dmax (ITK; [2]) | DC50 (ITK; C-terminal HiBiT-tagged Molt4 cells, 4 hrs incubation) | SMILES | detection in plasma ([1]; oral, 6 hour and 24 hour assays) |
| --- | --- | --- | --- | --- | --- | --- | --- |
| 1.69 µM·h | 609 nM | 1 h | – | – | – | CN(C(=O)CC1CCN(c2ccc(C3CCC(=O)NC3=O)cn2)CC1)c1ccc2cc(-c3n[nH]c4c3C[C@@H]3C(F)(F)[C@]3(C)C4)[nH]c2c1 (some centres unmarked) [Compound 27] | – |
| 1.25 µM·h | 870 nM | 2 h | 90 to 100% | 85% | – | C[C@@H](C(=O)N(C)c1ccc2cc(-c3n[nH]c4c3C[C@@H]3C(F)(F)[C@]3(C)C4)[nH]c2c1)N1CCN(CC2CCN(c3ccc(C4CCC(=O)NC4=O)cn3)CC2)CC1 (stereo partly drawn) [Compound 30, (2S)—N-(2-((4aS,5aR)-5,5-difluoro-5a-methyl-1,4,4a,5,5a,6-hexahydrocyclopropa[f]indazol-3-yl)-1H-indol-6-yl)-2-(4-((1-(5-(2,6-dioxopiperidin-3-yl)pyridin-2-yl)piperidin-4-yl)methyl)piperazin-1-yl)-N-methylpropanamide] | detected in plasma through 6 and 24 hours |
| 28 µM·h | 5100 nM | 2 h | – | 88% | 3 pM | CC1(C)CCc2c(-c3cc4ccc(C(=O)N5CCN(CC6CCN(c7ccc(C8CCC(=O)NC8=O)nc7)CC6)CC5)cc4[nH]3)n[nH]c2C1 (centres unmarked) [Compound 42, 3-(5-(4-((4-(2-(6,6-dimethyl-4,5,6,7-tetrahydro-1H-indazol-3-yl)-1H-indole-6-carbonyl)piperazin-1-yl)methyl)piperidin-1-yl)pyridin-2-yl)piperidine-2,6-dione] | – |
